Measurements: patent publication US10913736B2 (UNIVERSITY OF WASHINGTON, priority 2014, dated 2021)
“And” between values parts separate entries of the source, which are not always exact repeats. Equal entries are not always repeated. Where two headings read alike, the source gives them in different places.

Experiments:
T. brucei = experiment: Growth inhibition assay of T. brucei cell cultures (Alamar Blue, 48 h); format: cell-based
MetRS (T. brucei) = MetRS (T. brucei) (Trypanosoma brucei brucei, UniProt Q38C91); experiment: MetRS (T. brucei) ATP depletion assay using Kinase-Glo; format: biochemical
[1] = Trypanosoma brucei; read-out: B) T. brucei EC50

MetRS (T. brucei), sequence (Q38C91 entry or part of it): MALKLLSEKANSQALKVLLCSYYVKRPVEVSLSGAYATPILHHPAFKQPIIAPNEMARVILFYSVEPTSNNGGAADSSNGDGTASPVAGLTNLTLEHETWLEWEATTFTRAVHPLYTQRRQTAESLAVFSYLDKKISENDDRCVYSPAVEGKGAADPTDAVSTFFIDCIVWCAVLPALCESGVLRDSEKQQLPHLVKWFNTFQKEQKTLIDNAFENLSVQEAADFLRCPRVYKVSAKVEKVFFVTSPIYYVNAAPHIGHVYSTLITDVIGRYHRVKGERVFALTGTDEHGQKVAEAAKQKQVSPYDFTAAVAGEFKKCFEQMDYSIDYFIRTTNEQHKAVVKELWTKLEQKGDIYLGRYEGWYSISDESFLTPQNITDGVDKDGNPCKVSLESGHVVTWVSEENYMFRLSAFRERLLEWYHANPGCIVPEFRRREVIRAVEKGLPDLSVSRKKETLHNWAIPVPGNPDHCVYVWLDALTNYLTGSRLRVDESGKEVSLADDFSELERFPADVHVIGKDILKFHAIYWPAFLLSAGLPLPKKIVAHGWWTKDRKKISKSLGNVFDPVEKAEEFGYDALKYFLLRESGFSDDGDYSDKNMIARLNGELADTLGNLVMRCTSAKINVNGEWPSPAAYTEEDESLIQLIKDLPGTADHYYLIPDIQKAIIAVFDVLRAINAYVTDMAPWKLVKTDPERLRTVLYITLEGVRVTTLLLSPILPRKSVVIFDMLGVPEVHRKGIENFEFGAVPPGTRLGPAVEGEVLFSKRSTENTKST

CCCOc1c(Cl)cc(Cl)cc1CN[C@H]1CCCN(c2nc3nc(Cl)ccc3[nH]2)C1 [Compound 1927, (S)-1-(5-chloro-1H-imidazo[4,5-b]pyridin-2-yl)-N-(3,5-dichloro-2-propoxybenzyl)piperidin-3-amine] was tested, and the EC50 (T. brucei; [1]) was 0.827 µM and the IC50 (MetRS (T. brucei)) was 0.047 µM.

Molecule O=C(Cc1ccc(Cl)cc1Cl)NCc1nc2ccc(Br)cc2[nH]1 [Compound 1874, N-[(6-bromo-1H-1,3-benzodiazol-2-yl)methyl]-2-(2,4-dichlorophenyl)acetamide] has an EC50 (T. brucei; [1]) of 3.65 µM and an IC50 (MetRS (T. brucei)) of 0.051 µM.

Clc1cc(Cl)cc(CNC2CCCC(c3nc4ncccc4[nH]3)C2)c1 (stereo not shown) [Compound 1817, N-(3,5-dichlorobenzyl)-3-(1H-imidazo[4,5-b]pyridin-2-yl) cyclohexanamine] was tested, and the EC50 (T. brucei; [1]) was 2.06 µM and the IC50 (MetRS (T. brucei)) was > 10 µM.

With O=C(Cc1cc(Cl)cc(Cl)c1)N1CCC[C@@H](c2nc3cc(Cl)ccc3[nH]2)C1 [Compound 1757, (R)-1-(3-(5-chloro-1H-benzo[d]imidazol-2-yl)piperidin-1-yl)-2-(3,5-dichlorophenyl)ethanone] the EC50 (T. brucei; [1]) was > 10 µM and the IC50 (MetRS (T. brucei)) was 3.5 µM.

In the case of COC(=O)N(CCCNc1nc2ccc(F)nc2n1C(=O)OC)Cc1cc(Cl)cc(Cl)c1 [Compound 1965, methyl 3,5-dichlorobenzyl3-(3-(methoxycarbonyl)-5-fluoro-3H-imidazo[4,5-b]pyridin-2-ylamino)propylcarbamate], the EC50 (T. brucei; [1]) is reported as 0.0962 µM and the IC50 (MetRS (T. brucei)) is reported as 0.345 µM and 0.322 µM.

In the case of O=C(Cc1nc2cc(Cl)cc(Cl)c2[nH]1)NCc1nc2ccccc2[nH]1 [Compound 1764, N-((1H-benzo[d]imidazol-2-yl)methyl)-2-(5,7-dichloro-1H-benzo[d]imidazol-2-yl)acetamide], the EC50 (T. brucei; [1]) is reported as > 20 µM and the IC50 (MetRS (T. brucei)) is reported as > 10 µM.

Clc1cc(Cl)cc(NCC2CCCN(c3nc4nc(Cl)c(Br)cc4[nH]3)C2)c1 (stereo not shown) [Compound 1863, N-((1-(6-bromo-5-chloro-1H-imidazo[4,5-b]pyridin-2-yl)piperidin-3-yl)methyl)-3,5-dichloroaniline] was tested, and the EC50 (T. brucei; [1]) was 3.29 µM and the IC50 (MetRS (T. brucei)) was > 10 µM.

For CCC(=O)NC(CC(=O)NCc1cc(Cl)cc(Cl)c1)c1nc2ccc(Cl)nc2[nH]1 (stereo not shown) [Compound 1968, 3-{5-chloro-3H-imidazo[4,5-b]pyridin-2-yl}-N-[(3,5-dichlorophenyl)methyl]-3-propanamidopropanamide], the EC50 (T. brucei; [1]) was > 20 µM and the IC50 (MetRS (T. brucei)) was 1.86 µM.

In the case of Clc1cc(Cl)c(OC2CC2)c(CN[C@H]2CCCN(c3nc4nc(Cl)ccc4[nH]3)C2)c1 [Compound 1930, (S)-1-(5-chloro-1H-imidazo[4,5-b]pyridin-2-yl)-N-(3,5-dichloro-2-cyclopropoxybenzyl)piperidin-3-amine], the EC50 (T. brucei; [1]) is reported as 3.12 µM and the IC50 (MetRS (T. brucei)) is reported as 0.389 µM.

Molecule CC(Cc1nc2ccccc2[nH]1)NCc1cc(Cl)cc(Cl)c1 (stereo not shown) [Compound 1819, [1-(1H-1,3-benzodiazol-2-yl)propan-2-yl][(3,5-dichlorophenyl)methyl]amine] has an EC50 (T. brucei; [1]) of 8.9 µM and an IC50 (MetRS (T. brucei)) of 7.23 µM.

With Clc1cc(Cl)cc(CN[C@@H]2CCN(c3nc4ccc(Cl)nc4[nH]3)C2)c1 [Compound 1847, (3R)-1-{5-chloro-3H-imidazo[4,5-b]pyridin-2-yl}-N-[(3,5-dichlorophenyl)methyl]pyrrolidin-3-amine] the EC50 (T. brucei; [1]) was 9.01 µM and the IC50 (MetRS (T. brucei)) was 0.696 µM.

For Clc1cc(Cl)cc(CN[C@H]2CCN(c3nc4ccc(Cl)nc4[nH]3)C2)c1 [Compound 1845, (3S)-1-{5-chloro-3H-imidazo[4,5-b]pyridin-2-yl}-N-[(3,5-dichlorophenyl)methyl]pyrrolidin-3-amine], the EC50 (T. brucei; [1]) was 1.54 µM and the IC50 (MetRS (T. brucei)) was 0.047 µM.

C=CCOc1c(Cl)cc(Cl)cc1CN[C@H]1CCCN(c2nc3nc(Cl)ccc3[nH]2)C1 [Compound 1928, (S)—N-(2-(allyloxy)-3,5-dichlorobenzyl)-1-(5-chloro-1H-imidazo[4,5-b]pyridin-2-yl)piperidin-3-amine] gave an EC50 (T. brucei; [1]) of 0.326 µM and an IC50 (MetRS (T. brucei)) of 0.021 µM.

CC(=O)N(Cc1cc(Cl)cc(Cl)c1)[C@@H]1CCC[C@H](c2nc3nc(F)ccc3[nH]2)C1 [Compound 1932, N-(3,5-dichlorobenzyl)-N-((1R,3S)-3-(5-fluoro-1H-imidazo[4,5-b]pyridin-2-yl)cyclohexyl)acetamide] was tested, and the EC50 (T. brucei; [1]) was 8.91 µM and the IC50 (MetRS (T. brucei)) was 0.518 µM.

With O=C(Cc1cc(Cl)cc(Cl)c1)N1CCCC(c2nc3ccccc3[nH]2)C1 (stereo not shown) [Compound 1732, 1-(3-(1H-benzo[d]imidazol-2-yl)piperidin-1-yl)-2-(3,5-dichlorophenyl)ethanone] the EC50 (T. brucei; [1]) was > 5 µM and the IC50 (MetRS (T. brucei)) was 0.288 µM.

O=C(CNc1cc(Cl)cc(Cl)c1)NCc1nc2ccc(Cl)nc2[nH]1 [Compound 1990, N-({5-chloro-3H-imidazo[4,5-b]pyridin-2-yl}methyl)-2-[(3,5-dichlorophenyl)amino]acetamide] showed an EC50 (T. brucei; [1]) of 2.04 µM and an IC50 (MetRS (T. brucei)) of 0.017 µM.

For O=C(Cc1cc(Cl)cc(Cl)c1)NCc1nc2cnc(Cl)cc2[nH]1 [Compound 1879, N-({6-chloro-1H-imidazo[4,5-c]pyridin-2-yl}methyl)-2-(3,5-dichlorophenyl)acetamide], the EC50 (T. brucei; [1]) was 11.2 µM and the IC50 (MetRS (T. brucei)) was 0.416 µM.

Clc1cc(Cl)c(Cl)c(CN[C@H]2CCCN(c3nc4nc(Cl)ccc4[nH]3)C2)c1 [Compound 1902, (S)-1-(5-chloro-1H-imidazo[4,5-b]pyridin-2-yl)-N-(2,3,5-trichlorobenzyl)piperidin-3-amine] was tested, and the EC50 (T. brucei; [1]) was 0.354 µM and the IC50 (MetRS (T. brucei)) was 0.018 µM.

For CNCc1cc(Cl)cc(Cl)c1O/C=C/C(=O)NCc1nc2ccccc2[nH]1 [Compound 1779, (2E)-N-(1H-1,3-benzodiazol-2-ylmethyl)-3-{2,4-dichloro-6-[(methylamino)methyl]phenoxy}prop-2-enamide], the EC50 (T. brucei; [1]) was > 20 µM and the IC50 (MetRS (T. brucei)) was > 10 µM.

Molecule Clc1cc(Cl)cc(CNCCNc2nc3ncc(Cl)cc3[nH]2)c1 [Compound 1850, [2-({6-chloro-1H-imidazo[4,5-b]pyridin-2-yl}amino)ethyl][(3,5-dichlorophenyl)methyl]amine] has an EC50 (T. brucei; [1]) of 3.87 µM and an IC50 (MetRS (T. brucei)) of 0.385 µM.

CCN(Cc1cc(Cl)cc(Cl)c1)[C@H]1CCCN(c2nc3ccc(Cl)nc3[nH]2)C1 [Compound 1955, (S)-1-(5-chloro-1H-imidazo[4,5-b]pyridin-2-yl)-N-(3,5-dichlorobenzyl)-N-ethylpiperidin-3-amine] gave an EC50 (T. brucei; [1]) of 1.74 µM and an IC50 (MetRS (T. brucei)) of 0.286 µM.

Work on Clc1cc(Cl)cc(CNCCCc2nc3ccc(Cl)cc3[nH]2)c1 [Compound 1832, [3-(6-chloro-1H-1,3-benzodiazol-2-yl)propyl][(3,5-dichlorophenyl)methyl]amine] yielded an EC50 (T. brucei; [1]) of 2.15 µM and an IC50 (MetRS (T. brucei)) of 0.243 µM.

O=C(Cc1cc(Cl)cc(Cl)c1)N1CCCC(c2nc3cc(Cl)c(F)cc3[nH]2)C1 (stereo not shown) [Compound 1746, 1-(3-(5-chloro-6-fluoro-1H-benzo[d]imidazol-2-yl)piperidin-1-yl)-2-(3,5-dichlorophenyl)ethanone] was tested, and the EC50 (T. brucei; [1]) was 3.33 µM and the IC50 (MetRS (T. brucei)) was 0.138 µM.

For O=C1CN(C(=O)c2ccc3ccccc3c2)CCN1Cc1nc2ccccc2[nH]1 [Compound 1760, 1-((1H-benzo[d]imidazol-2-yl)methyl)-4-(2-naphthoyl)piperazin-2-one], the EC50 (T. brucei; [1]) was > 10 µM and the IC50 (MetRS (T. brucei)) was > 10 µM.

O=C(Cc1ccc(Cl)cc1Cl)NCc1nc2ccc(Cl)nc2[nH]1 [Compound 1876, N-({5-chloro-3H-imidazo[4,5-b]pyridin-2-yl}methyl)-2-(2,4-dichlorophenyl)acetamide] was tested, and the EC50 (T. brucei; [1]) was > 20 µM and the IC50 (MetRS (T. brucei)) was 0.375 µM.

Molecule Fc1ccc2[nH]c(CCCNCc3cc(Cl)cc(Cl)c3)nc2n1 [Compound 1858, N-(3,5-dichlorobenzyl)-3-(5-fluoro-1H-imidazo[4,5-b]pyridin-2-yl)propan-1-amine] has an EC50 (T. brucei; [1]) of 1.89 µM and an IC50 (MetRS (T. brucei)) of 0.34 µM.

With O=C1CN(Cc2ccc(Cl)cc2Cl)CCN1Cc1nc2ccccc2[nH]1 [Compound 1747, 1-((1H-benzo[d]imidazol-2-yl)methyl)-4-(2,4-dichlorobenzyl)piperazin-2-one] the EC50 (T. brucei; [1]) was > 10 µM and the IC50 (MetRS (T. brucei)) was > 10 µM.

CC(=O)N1CCC(N(C(C)=O)[C@H]2CCCN(c3nc4nc(Cl)ccc4[nH]3)C2)c2cc(Cl)cc(Cl)c21 (stereo partly shown) [Compound 1945] was tested, and the EC50 (T. brucei; [1]) was 13.7 µM and the IC50 (MetRS (T. brucei)) was > 10 µM.

With O=C(COc1ccc(Cl)cc1Cl)NCCc1nc2ccccc2[nH]1 [Compound 1675, N-[2-(1H-1,3-benzodiazol-2-yl)ethyl]-2-(2,4-dichlorophenoxy)acetamide] the EC50 (T. brucei; [1]) was > 20 µM and the IC50 (MetRS (T. brucei)) was 8.23 µM.

For CC(=O)N(C1CCNc2c(Cl)cc(Cl)cc21)[C@H]1CCCN(c2nc3nc(Cl)ccc3[nH]2)C1 (stereo partly shown) [Compound 1943], the EC50 (T. brucei; [1]) was 0.419 µM, the EC50 (T. brucei; read-out: B) T. brucei EC50) was 0.389 µM and the IC50 (MetRS (T. brucei)) was 2.13 µM and 3.54 µM.

For CC(=O)N(Cc1ccc(Cl)cc1Cl)C1CCCC(c2nc3nc(Cl)ccc3[nH]2)C1 (stereo not shown) [Compound 1810, N-(3-(5-chloro-1H-imidazo[4,5-b]pyridin-2-yl)cyclohexyl)-N-(2,4-dichlorobenzyl)acetamide], the EC50 (T. brucei; [1]) was 4.53 µM and the IC50 (MetRS (T. brucei)) was 0.361 µM.

In the case of CN(CCNCc1cc(Cl)cc(Cl)c1)c1nc2nc(Cl)c(Br)cc2[nH]1 [Compound 1894, 6-bromo-5-chloro-N-(2-{[(3,5-dichlorophenyl)methyl]amino}ethyl)-N-methyl-3H-imidazo[4,5-b]pyridin-2-amine], the EC50 (T. brucei; [1]) is reported as 2.89 µM and the IC50 (MetRS (T. brucei)) is reported as 0.179 µM.

In the case of CCOc1c(Br)cc(Cl)cc1CN[C@H]1CCCN(c2nc3nc(Cl)ccc3[nH]2)C1 [Compound 1937, (S)—N-(3-bromo-5-chloro-2-ethoxybenzyl)-1-(5-chloro-1H-imidazo[4,5-b]pyridin-2-yl)piperidin-3-amine], the EC50 (T. brucei; [1]) is reported as 0.23 µM and the IC50 (MetRS (T. brucei)) is reported as 0.019 µM.

Work on O=C(/C=C\Oc1ccc(Cl)cc1Cl)NCc1nc2ccccc2[nH]1 [Compound 1730, (Z)—N-((1H-benzo[d]imidazol-2-yl)methyl)-3-(2,4-dichlorophenoxy)acrylamide] yielded an EC50 (T. brucei; [1]) of 0.723 µM and an IC50 (MetRS (T. brucei)) of 0.142 µM.

COc1cc(CN2CCC[C@H](c3nc4nc(Cl)ccc4[nH]3)C2)cc(OC)c1 [Compound 1872, (S)-5-chloro-2-(1-(3,5-dimethoxybenzyl)piperidin-3-yl)-1H-imidazo[4,5-b]pyridine] was tested, and the EC50 (T. brucei; [1]) was 8.34 µM and the IC50 (MetRS (T. brucei)) was > 10 µM.

In the case of CC(=O)N(Cc1cc(Cl)cc(Cl)c1)C1CCCC(c2nc3ncccc3[nH]2)C1 (stereo not shown) [Compound 1818, N-(3-(1H-imidazo[4,5-b]pyridin-2-yl)cyclohexyl)-N-(3,5-dichlorobenzyl) acetamide], the EC50 (T. brucei; [1]) is reported as > 20 µM and the IC50 (MetRS (T. brucei)) is reported as 7.95 µM.
